Measured values: patent US9446027B2, “Use of pidotimod to treat irritable bowel syndrome” (POLICHEM SA, priority 2013, dated 2016)
Square brackets hold non-standard residues; d marks the D form. Peptide text beside a SMILES is read from it. pGlu = O=C1CC[C@@H](C(=O)O)N1; Thz = O=C(O)[C@@H]1CSCN1

Test system: irritable bowel syndrome
Assay: Open label pilot trial in patients with IBS: overall and extracolonic IBS scores
Type: in vivo, human
Settings: nine IBS patients, oral solution of Example 4 twice a day, after 12 weeks
Text: Nine patients with IBS aged 25 to 60 years (5 female) were enrolled in an open label pilot trial to receive twice a day the composition as per the Example 4. IBS was diagnosed according to Rome II criteria for the diagnosis of IBS (Rasquin-Weber A: Childhood functional gastrointestinal disorders, Gut 1999;45 (Suppl II): II60-II68). Rome II Criteria for the Diagnosis of IBS: at least 12 weeks, which need not be consecutive, in the preceding 12 months of abdominal discomfort or pain that has at least two of the following three features: • 1. Relieved by defecation. • 2. Onset associated with changes in stool frequency. • 3. Onset associated with changes in stool form.
The overall IBS scores (IBS Symptoms, Pain severity, Pain frequency, Bloating, Bowel habit dissatisfaction, Life interference) and extracolonic IBS scores were assessed at 4, 8, and 12 weeks during treatment.

SMILES: O=C1CC[C@@H](C(=O)N2CSC[C@H]2C(=O)O)N1 [Pidotimod, (4R)-3-(5-oxo-L-prolyl)-1,3-thiazolidine-4-carboxylic acid] ([pGlu]-[Thz]-OH)
- post-treatment overall extracolonic IBS score (baseline 240, P<0.001): 90
- overall IBS score (IBS Symptoms, Pain severity, Pain frequency, Bloating, Bowel habit dissatisfaction, Life interference) (baseline 315, P<0.05): 175
